In patent publication US8748452B2, “Indolizine derivative and use thereof for medical purposes” (Kissei Pharmaceutical Co., Ltd., priority 2009, dated 2014):

How the values were obtained:
[1] = molecular target: T1, Xanthine oxidase (from bovine milk, Sigma) (Bos taurus, UniProt P80457); assay: Xanthine oxidase inhibitory activity; type: biochemical; conditions: xanthine oxidase from bovine milk 0.02 units/mL, xanthine 200 μM, 10 minutes at room temperature, absorbance at 290 nm
T1 construct: Xanthine oxidase (from bovine milk, Sigma); purchased Sigma; host or cells: bovine milk
T1 sequence (P80457 whole entry): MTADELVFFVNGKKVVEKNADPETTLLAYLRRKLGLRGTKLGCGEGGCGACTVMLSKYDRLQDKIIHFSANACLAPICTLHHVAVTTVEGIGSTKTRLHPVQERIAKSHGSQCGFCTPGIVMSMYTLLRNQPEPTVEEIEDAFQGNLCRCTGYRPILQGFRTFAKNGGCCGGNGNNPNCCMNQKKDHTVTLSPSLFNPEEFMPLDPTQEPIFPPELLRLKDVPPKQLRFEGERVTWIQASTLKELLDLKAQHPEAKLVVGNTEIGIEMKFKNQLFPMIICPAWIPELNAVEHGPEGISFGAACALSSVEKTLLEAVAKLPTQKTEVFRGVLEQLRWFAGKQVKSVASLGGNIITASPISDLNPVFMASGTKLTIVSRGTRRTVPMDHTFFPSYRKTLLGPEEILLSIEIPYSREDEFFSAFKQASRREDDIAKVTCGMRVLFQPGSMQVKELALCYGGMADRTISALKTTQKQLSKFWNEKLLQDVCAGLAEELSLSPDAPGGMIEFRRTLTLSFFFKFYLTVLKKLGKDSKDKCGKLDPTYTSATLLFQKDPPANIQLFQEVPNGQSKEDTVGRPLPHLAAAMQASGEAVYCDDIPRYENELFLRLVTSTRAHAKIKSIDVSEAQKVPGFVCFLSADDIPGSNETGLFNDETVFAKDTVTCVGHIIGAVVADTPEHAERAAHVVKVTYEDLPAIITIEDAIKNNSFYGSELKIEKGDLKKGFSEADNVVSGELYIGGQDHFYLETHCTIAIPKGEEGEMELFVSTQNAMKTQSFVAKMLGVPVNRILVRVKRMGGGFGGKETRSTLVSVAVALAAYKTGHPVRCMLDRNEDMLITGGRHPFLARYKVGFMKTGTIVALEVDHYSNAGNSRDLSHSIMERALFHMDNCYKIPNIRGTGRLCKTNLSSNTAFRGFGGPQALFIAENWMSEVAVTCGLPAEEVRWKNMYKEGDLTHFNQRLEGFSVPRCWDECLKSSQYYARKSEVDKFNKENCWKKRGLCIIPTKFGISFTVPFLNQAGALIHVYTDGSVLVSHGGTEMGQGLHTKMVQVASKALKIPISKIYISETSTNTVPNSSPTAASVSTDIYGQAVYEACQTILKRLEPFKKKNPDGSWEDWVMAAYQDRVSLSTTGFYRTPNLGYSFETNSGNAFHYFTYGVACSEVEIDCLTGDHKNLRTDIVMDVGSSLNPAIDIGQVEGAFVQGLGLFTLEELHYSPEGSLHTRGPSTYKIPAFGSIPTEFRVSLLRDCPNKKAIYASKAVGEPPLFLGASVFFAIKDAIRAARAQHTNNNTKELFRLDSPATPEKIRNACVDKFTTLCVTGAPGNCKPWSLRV
Procedure: (1) Preparation of test compounds
Test compounds were dissolved in DMSO (Wako pure chemical) at 40 mM concentration and then diluted to intended concentrations with phosphate-buffered saline (PBS).
(2) Method for measurement
Xanthine oxidase (from bovine milk, Sigma) was prepared with phosphate-buffered saline (PBS) at 0.02 units/mL, and then the solution was added to 96 well plates at 50 μL/well. In addition, test compounds diluted with PBS were added at 50 μL/well. Xanthine (Wako pure chemical) at 200 μM prepared with PBS was added at 100 μL/well, and the mixture was reacted for 10 minutes at room temperature. Absorbance at 290 nm was measured using a microplate reader SpectraMax Plus 384 (Molecular device). The absorbance under a condition without xanthine is 0%, and control without test compounds is 100%. Fifty % inhibitory concentration (IC50) of test compounds was calculated (Table 17). Ex. No. in the table indicates Example number.

[2] = molecular target: T2, human URAT1 (Homo sapiens, UniProt Q96S37); assay: Inhibitory activity of uric acid transport with human URAT1 expressing cells; type: cell-based; conditions: COS-7; concentration of 10 μM; 14C-labeled uric acid 20 μM, 5 minutes uptake, COS7 cells transiently expressing human URAT1
T2 construct: expressed in transfected cells; host or cells: COS7 cells (RIKEN CELL BANK RCB0539), transient, pcDNA3.1
T2 sequence (Q96S37 1-553): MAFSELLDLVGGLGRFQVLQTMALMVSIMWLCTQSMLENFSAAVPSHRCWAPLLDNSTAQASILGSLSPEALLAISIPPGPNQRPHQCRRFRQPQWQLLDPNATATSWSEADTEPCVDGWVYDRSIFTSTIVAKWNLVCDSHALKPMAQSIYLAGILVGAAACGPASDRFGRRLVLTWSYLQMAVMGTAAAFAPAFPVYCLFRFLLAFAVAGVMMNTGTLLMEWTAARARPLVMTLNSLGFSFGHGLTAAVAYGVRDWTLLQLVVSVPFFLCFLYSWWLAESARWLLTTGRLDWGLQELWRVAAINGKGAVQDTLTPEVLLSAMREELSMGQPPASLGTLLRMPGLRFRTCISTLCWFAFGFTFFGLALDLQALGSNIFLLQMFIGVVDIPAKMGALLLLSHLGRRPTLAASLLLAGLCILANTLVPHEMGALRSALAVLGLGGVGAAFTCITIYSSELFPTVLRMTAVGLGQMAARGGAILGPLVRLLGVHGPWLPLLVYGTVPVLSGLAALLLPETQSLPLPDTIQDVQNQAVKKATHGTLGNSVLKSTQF
Procedure: (1) Preparation of transiently human URAT1 expressing cells
Full length human URAT1 cDNA (NCBI Accession No. NM_144585) was subcloned into expression vector, pcDNA3.1 (Invitrogen). Human URAT1 expression vector was transfected into COS7 cells (RIKEN CELL BANK RCB0539) using Lipofectamine 2000 (Invitrogen). COS7 cells were seeded in collagen-coated 24 well plates (Beckton Dickinson) at 3×10^5 cells / well and cultured in D-MEM culture medium (Invitrogen) containing 10% fetal bovine serum (Sanko Junyaku) for 2 hours at 37° C. under the condition of 5% CO2. For 1 well, 2 μL of Lipofectamine 2000 was diluted in 50 μL of OPTI-MEM (Invitrogen) and allowed to stand at room temperature for 7 minutes (hereinafter referred to as Lipo2000-OPTI). For 1 well, 0.8 μg of human URAT1 expression vector was diluted in 50 μL of OPTI-MEM (Invitrogen) and combined gently with Lipo2000-OPTI. After standing at room temperature for 25 minutes, the mixture was added to COS7 cells at 100 μL/well. Furthermore, COS7 cells were cultured for 2 days at 37° C. under the condition of 5% CO2 and used for measuring inhibitory activity on the uptake.
(2) Preparation of test compounds
Test compounds were dissolved in DMSO (Wako pure chemical) at 10 mM concentration and then diluted to 2 times higher concentration than intended with pre-treatment buffer (125 mM sodium gluconate, 4.8 mM potassium gluconate, 1.2 mM potassium dihydrogen phosphate, 1.2 mM magnesium sulfate, 1.3 mM calcium gluconate, 5.6 mM glucose, 25 mM Hepes, pH 7.4). Pre-treatment buffer without test compounds was used for control. In addition, an equal volume of pre-treatment buffer containing ^14C-labeled uric acid (American Radiolabeled Chemicals, Inc.) was added to test compounds and control, and finally assay buffer including 20 μM uric acid was prepared.
(3) Method for measurement
All tests were performed on hot-plate at 37° C. Pre-treatment buffer and assay buffer were incubated at 37° C. and then used for assays. Medium was removed from plates, and 700 μL of pre-treatment buffer was added, and the cells were pre-incubated for 10 minutes. After repeating the same step, pre-treatment buffer was removed, and assay buffer was added at 400 μL/well. The uptake reaction was carried out for 5 minutes. After terminating the reaction, assay buffer was rapidly removed, and the cells were washed twice with addition of ice-cold pre-treatment buffer at 1.2 mL/well. Then, the cells were lysed by addition of 0.2 mol/L sodium hydroxide at 300 μL/well. The lysed solutions were transferred into Picoplate (PerkinElmer), and Microscinti 40 (PerkinElmer) was added at 600 μL/well. After mixing, the radioactivity was counted in a liquid scintillation counter (PerkinElmer). The radioactivity in COS7 cells not transfected with URAT1 expression vector was also counted under the same condition as control. As a result, it was shown that compounds of Examples 5, 8, 17, 18, 22, 40 and 55 have inhibitory activity of 50% or higher in a concentration of 10 μM.

[3] = test system: male CD (SD) IGS rats; assay: Serum hypouricemic effect; type: in vivo; conditions: Rattus norvegicus; 1 mg/kg oral gavage, overnight fasted male rats, serum at 2 hours after administration; read-out: percent decrease in uric acid
Procedure: Test compounds at 1 mg/kg suspended in 0.5% methylcellulose solution were administered by oral gavage administration to overnight fasted male CD (SD) IGS rats (5-week-old, Charls River Japan). At 2 hours after administration, blood was collected under ether anesthesia from abdominal aorta, and serum was separated according to general method. Serum uric acid values were determined by use of uric acid measurement kit (Uric acid C-Test Wako: Wako pure chemical), and percent decrease in uric acid was calculated according to the formula described below. As a result, it was shown that compounds of Examples 2, 7, 10, 22, 23, 25, 37, 49, 50 and 58 have over 60% percent decrease in uric acid.
Percent decrease in uric acid (%)=(Serum uric acid values in control animals−Serum uric acid values in animals administered test compounds)×100/Serum uric acid values in control animals

| IC50 [1] | inhibition at 10 µM [2] | SMILES | inhibition in vivo at 1 mg/kg [3] |
| --- | --- | --- | --- |
| 10 nM | ≥ 50% | Cc1ccc2c(C#N)cc(-c3ccc(C(=O)O)cc3)n2c1 [Example 5] | – |
| 6 nM | ≥ 50% | Cc1cc2c(C#N)cc(-c3ccc(C(=O)O)cc3)n2cc1F [Example 8] | – |
| 3 nM | ≥ 50% | Cc1ccn2c(-c3ccc(C(=O)O)c(O)c3)cc(C#N)c2c1 [Example 18] | – |
| 3 nM | ≥ 50% | Cc1cc2c(C#N)cc(-c3ccc(C(=O)O)c(O)c3)n2cc1F [Example 22] | > 60% |
| 14 nM | ≥ 50% | N#Cc1cc(-c2ccc(C(=O)O)cc2)n2cc(F)cc(F)c12 [Example 40] | – |
| 6 nM | ≥ 50% | N#Cc1cc(-c2ccc(C(=O)O)c(O)c2)n2cc(F)cc(F)c12 [Example 55] | – |
